Read-outs that look alike come from different tables or passages of the source.
What was measured:
[1] = anticoagulant strength of injectable heparin according to European Pharmacopoeia 2002 (EP strength); format: biochemical
Experimental: (§1) 7) Analytical Techniques Used • The anticoagulant strength of injectable heparin was determined according to European Pharmacopoeia 2002 (EP strength) and to USP 26 (USP strength) • Anti Xa and anti ha strengths were determined according to the literature of low molecular weight heparins (European Pharmacopoeia 2002) • Distribution of molecular weights and mean ponderal molecular weight were determined according to the literature of low molecular weight heparins (European Pharmacopoeia 2002), therefore, in the run buffer, TEA is replaced by Na^+ and the data obtained then pertain to polysaccharide sodium salt and not to TEA salt. • Triethanolamine is dosed by potentiometric titration.

[2] = biological target: T1, IIa (Homo sapiens, UniProt P00734); conditions: LMWH sodium salt by radical fragmentation methods, European Pat. 268885, U.S. Pat. No. 4,977,250; cited from earlier work
[3] = system: Xa; conditions: LMWH sodium salt by radical fragmentation methods, European Pat. 268885, U.S. Pat. No. 4,977,250; cited from earlier work
[4] = hygroscopicity of the lyophilized product (observation); format: physicochemical; conditions: lyophilized solid
Excerpt: The salt obtained from the reaction of the triethanolamine (TEA) with the low molecular weight heparin (LMWH) is an amber colored substance, with a waxy appearance, extremely difficult to manipulate due to its high hygroscopicity. These characteristics of the LMWH-TEA salt make extremely difficult its precise dosage in the preparation of the pharmaceutical end products (creams, gels, ointments).

[5] = biological target: T1, IIa; test: anti IIa strength, European Pharmacopoeia 2002 Low Molecular Mass Heparin; format: biochemical
Experimental: (§2) The anti Xa and anti IIa biological strengths were measured according to the European Pharmacopoeia EP2002; “Low Molecular Mass Heparin”, as well as the mean molecular weights (weighed average Mw) and the molecular weight distribution. Moreover, the standards and gages are those strictly cited in the mentioned literature. It is noted that in the run buffer for the chromatographic test by HPLC (Na2SO4, 0.2M pH 5.0) the TEA is replaced by N^a+ whereby the declared value is that of the sodium polysaccharide fraction and not the one of the LMWH-TEA salt.
as §1

[6] = system: experimental thrombosis in the tail of the test rat; test: κ-carrageenan rat tail thrombosis model, local cream treatment; format: in vivo, Wister rats (female); conditions: 1000 u antiXa/gram, compared with local heparin and LMWH sodium salt creams
Excerpt: With such criteria, Wister rats (female) raised in the laboratory and sanitarily controlled were used as test mammal.
Particularly, the thrombosis model developed consists of generating an experimental thrombosis in the tail of the test rat by intravenous injection (right caudal vein) of a thrombogenic substance such as κ-carrageenan. Without treatment, the tail of the animal totally forms thrombus without remission over time and ends up with necrosis after 3-4 days.
Particularly, this test was carried out according to the general outlines in Beckmeier et al, Agents and Actions, 16, 446 (1985), as follows:
a. Animals: female rats of 200-300 grams weight.
b. Thrombosing Solution: κ carrageenan Type II solution (Sigma C 1263) 1 mg/ml in sterile physiologic solution. 1 ml /kg of animal (right caudal vein of the tail) is injected (0.25 ml).
c. Thrombus induction: a tourniquet is placed near the tail base (15 cm from the end thereof) which was previously shaved. After 1 minute a thrombosing solution is injected and the animal tail is immediately immersed for 30 seconds in ice water, water is removed, it is dried and the tourniquet is kept for an additional 30 seconds. Then, the animal is kept for 2 minutes in a chamber at 10° C.
d. […]

[7] = system: Xa; test: anti Xa strength, European Pharmacopoeia 2002 Low Molecular Mass Heparin; format: biochemical
Experimental: as §2, §1

[8] = Example 3 comparison: LMWH-TEA of Example 2 vs lyophilizate with mannitol (60:40)
[9] = theoretical calculation: 100 g LMWH-Na = 167 g LMWH-TEA

Substance: heparin [Injectable Heparin]
- EP Strength ([1]; starting injectable heparin of Example 1): 182 iu/mg
- EP Strength ([1]; starting injectable heparin of Example 2): 180 iu/mg

Substance: low molecular weight heparin sodium salt [LMWH Na]
- anti IIa Strength [2]: ~40 iu/mg
- anti Xa Strength [3]: ~90 iu/mg

Substance: low molecular weight heparin salt with triethanolamine [LMWH-TEA]
- hygroscopicity [4]: highly hygroscopic
- anti IIa Strength [5, 8]: 24 iu/mg
- anti IIa Strength ([5]; product of Example 1): 24 iu/mg
- anti IIa Strength ([5]; product of Example 2): 24 iu/mg
- anti IIa, Experimental ([5]; summary of experimental data): 24 iu/mg
- anti IIa, Theoretical [5, 9]: 24 iu/mg
- efficacy against thrombosis, in words [6]: highly significant restitutive activity
- anti Xa Strength [7, 8]: 50 iu/mg
- anti Xa Strength ([7]; product of Example 1 (HClO depolymerization, diafiltration with TEA)): 51 iu/mg
- anti Xa Strength ([7]; product of Example 2 (H2O2/FeSO4 depolymerization, ion exchange resin, TEA)): 50 iu/mg
- anti Xa, Experimental ([7]; summary of experimental data): 50-51 iu/mg
- anti Xa, Theoretical [7, 9]: 54 iu/mg
